{"source": "ChEMBL document CHEMBL4311957", "about": "“Recent advances in natural antifungal flavonoids and their derivatives” (Bioorg Med Chem Lett, 2019)", "assay_type_in_all_cases": "functional", "key": {"Candida albicans [1]": {"system": "Candida albicans", "assay": "Antifungal activity against FLC-resistant Candida albicans ATCC 10231"}, "[2]": {"assay": "Antifungal activity against FLC-resistant Candida arborea KKP 319"}, "Candida dubliniensis [3]": {"system": "Candida dubliniensis", "assay": "Antifungal activity against FLC-resistant Candida dubliniensis CBS 7987"}, "Nakaseomyces glabratus [4]": {"system": "Nakaseomyces glabratus", "assay": "Antifungal activity against FLC-resistant Candida glabrata DSM 11226"}, "Pichia kudriavzevii [5]": {"system": "Pichia kudriavzevii", "assay": "Antifungal activity against FLC-resistant Candida krusei DSM 6128"}, "Yarrowia lipolytica [6]": {"system": "Yarrowia lipolytica", "assay": "Antifungal activity against FLC-resistant Candida lipolytica KKP 332"}, "Clavispora lusitaniae [7]": {"system": "Clavispora lusitaniae", "assay": "Antifungal activity against FLC-resistant Candida lusitaniae DSM 70102"}, "Candida parapsilosis [8]": {"system": "Candida parapsilosis", "assay": "Antifungal activity against FLC-resistant Candida parapsilosis DSM 5784", "conditions": "Lodderomyces parapsilosis"}, "Kluyveromyces marxianus [9]": {"system": "Kluyveromyces marxianus", "assay": "Antifungal activity against FLC-resistant Candida pseudotropicalis KKP 324"}, "[10]": {"system": "Meyerozyma guilliermondii", "assay": "Antifungal activity against FLC-resistant Candida guilliermondii DSM 11947"}, "Candida tropicalis [11]": {"system": "Candida tropicalis", "assay": "Antifungal activity against FLC-resistant Candida tropicalis KKP 334"}, "Candida albicans [12]": {"system": "Candida albicans", "assay": "Antifungal activity against FLC-resistant Candida stellatoidea CBS 1905"}, "[13]": {"assay": "Fungicidal activity against FLC-resistant Candida arborea KKP 319"}, "Candida albicans [14]": {"system": "Candida albicans", "assay": "Fungicidal activity against FLC-resistant Candida albicans ATCC 10231"}, "Candida dubliniensis [15]": {"system": "Candida dubliniensis", "assay": "Fungicidal activity against FLC-resistant Candida dubliniensis CBS 7987"}, "Nakaseomyces glabratus [16]": {"system": "Nakaseomyces glabratus", "assay": "Fungicidal activity against FLC-resistant Candida glabrata DSM 11226"}, "Pichia kudriavzevii [17]": {"system": "Pichia kudriavzevii", "assay": "Fungicidal activity against FLC-resistant Candida krusei DSM 6128"}, "Yarrowia lipolytica [18]": {"system": "Yarrowia lipolytica", "assay": "Fungicidal activity against FLC-resistant Candida lipolytica KKP 332"}, "Clavispora lusitaniae [19]": {"system": "Clavispora lusitaniae", "assay": "Fungicidal activity against FLC-resistant Candida lusitaniae DSM 70102"}, "Candida parapsilosis [20]": {"system": "Candida parapsilosis", "assay": "Fungicidal activity against FLC-resistant Candida parapsilosis DSM 5784", "conditions": "Lodderomyces parapsilosis"}, "Kluyveromyces marxianus [21]": {"system": "Kluyveromyces marxianus", "assay": "Fungicidal activity against FLC-resistant Candida pseudotropicalis KKP 324"}, "[22]": {"system": "Meyerozyma guilliermondii", "assay": "Fungicidal activity against FLC-resistant Candida guilliermondii DSM 11947"}, "Candida tropicalis [23]": {"system": "Candida tropicalis", "assay": "Fungicidal activity against FLC-resistant Candida tropicalis KKP 334"}, "Candida albicans [24]": {"system": "Candida albicans", "assay": "Fungicidal activity against FLC-resistant Candida stellatoidea CBS 1905"}, "Candida albicans [25]": {"system": "Candida albicans", "assay": "Antifungal activity against Candida albicans ATCC 24433 after 24 hrs", "conditions": "ATCC 24433, 24 h"}, "Pichia kudriavzevii [26]": {"system": "Pichia kudriavzevii", "assay": "Antifungal activity against Candida krusei ATCC 6258 after 24 hrs", "conditions": "ATCC 6258, 24 h"}, "Candida albicans [27]": {"system": "Candida albicans", "assay": "Antifungal activity against Candida albicans ATCC 44859 after 24 to 48 hrs"}, "Candida tropicalis [28]": {"system": "Candida tropicalis", "assay": "Antifungal activity against Candida tropicalis 156 after 24 to 48 hrs"}, "Pichia kudriavzevii [29]": {"system": "Pichia kudriavzevii", "assay": "Antifungal activity against Candida krusei E 28 after 24 to 48 hrs"}, "Nakaseomyces glabratus [30]": {"system": "Nakaseomyces glabratus", "assay": "Antifungal activity against Candida glabrata 20/I after 24 to 48 hrs"}, "[31]": {"system": "Trichophyton mentagrophytes", "assay": "Antifungal activity against Trichophyton mentagrophytes after 72 to 120 hrs"}, "Aspergillus fumigatus [32]": {"system": "Aspergillus fumigatus", "assay": "Antifungal activity against Aspergillus fumigatus after 24 to 48 hrs"}, "Candida parapsilosis [33]": {"system": "Candida parapsilosis", "assay": "Antifungal activity against Candida parapsilosis ATCC 22019 after 24 hrs", "conditions": "Lodderomyces parapsilosis, ATCC 22019, 24 h"}, "Nakaseomyces glabratus [34]": {"system": "Nakaseomyces glabratus", "assay": "Antifungal activity against Candida glabrata ATCC 90030 after 24 hrs", "conditions": "ATCC 90030, 24 h"}, "Candida albicans [35]": {"system": "Candida albicans", "assay": "Synergistic antifungal activity against Candida albicans by microbroth dilution method"}, "Candida albicans [36]": {"system": "Candida albicans", "assay": "Antifungal activity against Candida albicans after 24 hrs by broth dilution method"}, "Aspergillus fumigatus [37]": {"system": "Aspergillus fumigatus", "assay": "Antifungal activity against Aspergillus fumigatus after 24 hrs by broth dilution method"}, "Candida albicans [38]": {"system": "Candida albicans", "assay": "Antifungal activity against Candida albicans after 48 hrs by agar disc-diffusion method"}}}
{"smiles": "COc1ccc2oc(=O)sc2c1C(=O)/C=C/c1ccc(OCCN(C)C)cc1", "values": [{"measurement": "MIC", "setting": "Candida albicans [1]", "value": "1 to 16", "unit": "µg/mL"}, {"measurement": "MIC", "setting": "[2]", "value": "1 to 16", "unit": "µg/mL"}, {"measurement": "MIC", "setting": "Candida dubliniensis [3]", "value": "1 to 16", "unit": "µg/mL"}, {"measurement": "MIC", "setting": "Nakaseomyces glabratus [4]", "value": "1 to 16", "unit": "µg/mL"}, {"measurement": "MIC", "setting": "Pichia kudriavzevii [5]", "value": "1 to 16", "unit": "µg/mL"}, {"measurement": "MIC", "setting": "Yarrowia lipolytica [6]", "value": "1 to 16", "unit": "µg/mL"}, {"measurement": "MIC", "setting": "Clavispora lusitaniae [7]", "value": "1 to 16", "unit": "µg/mL"}, {"measurement": "MIC", "setting": "Candida parapsilosis [8]", "value": "1 to 16", "unit": "µg/mL"}, {"measurement": "MIC", "setting": "Kluyveromyces marxianus [9]", "value": "1 to 16", "unit": "µg/mL"}, {"measurement": "MIC", "setting": "[10]", "value": "1 to 16", "unit": "µg/mL"}, {"measurement": "MIC", "setting": "Candida tropicalis [11]", "value": "1 to 16", "unit": "µg/mL"}, {"measurement": "MIC", "setting": "Candida albicans [12]", "value": "1 to 16", "unit": "µg/mL"}, {"measurement": "MIC", "setting": "[13]", "value": "8 to 32", "unit": "µg/mL"}, {"measurement": "MIC", "setting": "Candida albicans [14]", "value": "8 to 32", "unit": "µg/mL"}, {"measurement": "MIC", "setting": "Candida dubliniensis [15]", "value": "8 to 32", "unit": "µg/mL"}, {"measurement": "MIC", "setting": "Nakaseomyces glabratus [16]", "value": "8 to 32", "unit": "µg/mL"}, {"measurement": "MIC", "setting": "Pichia kudriavzevii [17]", "value": "8 to 32", "unit": "µg/mL"}, {"measurement": "MIC", "setting": "Yarrowia lipolytica [18]", "value": "8 to 32", "unit": "µg/mL"}, {"measurement": "MIC", "setting": "Clavispora lusitaniae [19]", "value": "8 to 32", "unit": "µg/mL"}, {"measurement": "MIC", "setting": "Candida parapsilosis [20]", "value": "8 to 32", "unit": "µg/mL"}, {"measurement": "MIC", "setting": "Kluyveromyces marxianus [21]", "value": "8 to 32", "unit": "µg/mL"}, {"measurement": "MIC", "setting": "[22]", "value": "8 to 32", "unit": "µg/mL"}, {"measurement": "MIC", "setting": "Candida tropicalis [23]", "value": "8 to 32", "unit": "µg/mL"}, {"measurement": "MIC", "setting": "Candida albicans [24]", "value": "8 to 32", "unit": "µg/mL"}]}
{"smiles": "O=C(/C=C/c1ccccc1[N+](=O)[O-])c1cnccn1", "values": [{"measurement": "MIC", "setting": "Candida albicans [25]", "value": "0.78 to 3.12", "unit": "µg/mL"}, {"measurement": "MIC", "setting": "Pichia kudriavzevii [26]", "value": "0.78 to 3.12", "unit": "µg/mL"}, {"measurement": "MIC", "setting": "Candida albicans [27]", "value": 7.81, "unit": "µg/mL"}, {"measurement": "MIC", "setting": "Candida tropicalis [28]", "value": "7.81 to 500", "unit": "µg/mL"}, {"measurement": "MIC", "setting": "Pichia kudriavzevii [29]", "value": "7.81 to 125", "unit": "µg/mL"}, {"measurement": "MIC", "setting": "Nakaseomyces glabratus [30]", "value": "7.81 to 41.6", "unit": "µg/mL"}, {"measurement": "MIC", "setting": "[31]", "value": "6.51 to 31.2", "unit": "µg/mL"}, {"measurement": "MIC", "setting": "Aspergillus fumigatus [32]", "value": "7.81 to 500", "unit": "µg/mL"}, {"measurement": "MIC", "setting": "Candida parapsilosis [33]", "value": "0.78 to 3.12", "unit": "µg/mL"}, {"measurement": "MIC", "setting": "Nakaseomyces glabratus [34]", "value": "0.78 to 3.12", "unit": "µg/mL"}]}
{"smiles": "C[C@@H]1O[C@@H](Oc2cc(O)c3c(=O)c(O)c(-c4ccc(O)c(O)c4)oc3c2)[C@H](O)[C@H](O)[C@H]1O", "values": [{"measurement": "MIC", "setting": "Candida albicans [35]", "value": "> 64", "unit": "µg/mL"}]}
{"smiles": "Cc1cc(O)c(C(=O)/C=C/c2coc3ccccc3c2=O)c(=O)o1", "values": [{"measurement": "MIC", "setting": "Candida albicans [36]", "value": 12.5, "unit": "µg/mL"}, {"measurement": "MFC", "setting": "Aspergillus fumigatus [37]", "value": 50, "unit": "µg/mL"}]}
{"smiles": "O=C(CN1CCCCC1)Nc1ccc(C(=O)/C=C/c2ccc(Cl)cc2)cc1", "values": [{"measurement": "MIC", "setting": "Candida albicans [38]", "value": 2, "unit": "µg/mL"}]}
